# According to publication PMC10643403, “Targeting the Schistosoma mansoni nutritional mechanisms to design new antischistosomal compounds” (Scientific Reports, 2023):
# Where two headings read alike, the source gives them in different places.
# Experiments:
# S. mansoni adult worms = test: In vitro antischistosomal assay on adult worms; assay type: cell-based, Schistosoma mansoni; details: for Activity against 49-day-old S. mansoni worms at 50 µM: adult worms, initial in vitro trial, 72 h; for EC50: Schistosoma mansoni, based on mortality, after 72 h, 95% confidence interval in square brackets
# Procedure: The antischistosomal assay was performed according to the methodology previously described[16],[19],[20]. Briefly, […], were incubated in flat bottom 24-well plates (Corning, New York, NY, USA) in RPMI 1640 culture medium (Vitrocell, Campinas, SP, Brazil) supplemented with 5% inactivated fetal calf serum, antibiotics (100 U/mL penicillin and 100 μg/mL streptomycin), and buffered with HEPES 25 mM (Sigma-Aldrich, St. Louis, MO, USA). Compounds were dissolved in dimethyl sulfoxide (DMSO at a final concentration of 0.5% v/v) and tested at 50 μM using PZQ 2 μM and DMSO 0.5% as positive and negative controls, respectively. Parasites were kept for 72 h (37 °C, 5% CO2, Panasonic, Osaka, Japan) and their viability was assessed using a Motic AE2000 inverted microscope (Vancouver, Canada)[21]. Each experiment was performed in triplicate and repeated at least three times. The negative control (using the highest concentration of DMSO, i.e., 0.5) and positive control (praziquantel 2 µM) were included.
# Each concentration was tested in five replicates, and experiments were repeated once.
# Vero cells = test: In vitro cytotoxicity assay (MTT) on Vero cells; assay type: cell-based, African green monkey; details: CC50 on Vero cells divided by EC50 on schistosomes (based on the highest concentration)
# Procedure: (§1) The life cycle of S. mansoni (Belo Horizonte strain) is maintained through routine passage through Biomphalaria glabrata snails and Swiss mice at the Research Center on Neglected Diseases (Guarulhos University, SP, Brazil). Both rodents and snails were kept under environmentally controlled conditions (25 °C; humidity of 50%), with free access to food and water. Vero cells were obtained from the American Type Culture Collection (ATCC CCL-81; Manassas, VA, USA). Cells were routinely cultured in Dulbecco’s Modified Eagle Medium (DMEM) supplemented with 5% heat-inactivated fetal bovine serum and antibiotics (100 U/mL penicillin and 100 μg/mL streptomycin) at 37 °C in a humidified atmosphere containing 5% CO2 [17].
# (§2) The cytotoxicity of the compounds on the Vero cells was determined by thiazolyl blue tetrazolium bromide (MTT) assay (Sigma-Aldrich) as previously described[21],[24]. […] After 72 h, MTT solution was added to each well and the absorbance at 595 nm was read on a spectrophotometer (Epoch, BioTek Instruments, Winooski, VT, USA).
# [1] = In vitro cytotoxicity assay (MTT) on Vero cells; assay type: cell-based, African green monkey; details: African green monkey, Vero cells (ATCC CCL-81); Vero cells; MTT assay; 72 h; read-out: Mammalian cells CC50
# Procedure: as §1, §2
# S. mansoni-infected mice = test: In vivo antiparasitic study in an animal model of schistosomiasis; details: 400 mg/kg single oral dose, vs infected untreated control
# Procedure: In vivo studies in S. mansoni-infected mice were performed according to standard protocols[20],[26]. Rodents (3 weeks old) were infected subcutaneously with 80 S. mansoni cercariae each and animals were randomly divided into experimental groups (five mice per group). Compounds were dissolved in 2% ethanol in water (v/v) and tested at a single oral dose (400 mg/kg) administered 42 days post-infection[27]. For comparison, praziquantel (400 mg/kg) and a corresponding amount of vehicle were administered to groups of five schistosomes-infected animals in the same period[28],[29]. […] The percentage of worm and egg reduction was calculated by means of the following equation: % reduction = [(value of untreated control group − value of treatment group)/value of untreated control group] × 100%[32]. The nonparametric Kruskal–Wallis test was used to compare the medians of the responses between the treatment and control groups using the GraphPad Prism software (version 8.0; CA, USA). Differences were considered statistically significant at P < 0.05[9].
# Caenorhabditis elegans = assay type: in vivo; details: L4 stage, 24 h
# Procedure: Caenorhabditis elegans wild-type (N2 strain), kindly provided by Dr. Carlos E. Winter (University of São Paulo), was routinely cultured at 22 °C on nematode growth medium (NGM) plates seeded with Escherichia coli (strain OP50) as a food source according to standard protocols.
# For the drug assessment, the age-synchronized L1 stage was cultivated on standard NGM plates. When at the L4 stage, approximately 25 nematodes were transferred to each well of a 96-wells NGM plates containing the drug of interest at the desired concentration (10, 25, 50, 100, and 200 μM) along with a positive control (levamisole 10 μM) and a negative control (DMSO 0.5%). Nematodes were kept at 22 °C for 24 h, and their viability was verified microscopically using a Motic AE2000 inverted microscope (Vancouver, Canada) equipped with an ultra-high definition (UHD) camera and with a 48-inch 4K-UHD monitor system (LG Electronics, São Paulo, Brazil)[33].
# [2] = test system: cathepsin B1 from Schistosoma mansoni (SmCB1); set-up: method as in ref 2 (Fonseca et al.); details: ref 2 (Fonseca et al.), cited from earlier work
# [3] = test system: Schistosoma mansoni worms; set-up: method as in ref 1 (Santiago et al.); details: after 144 h; target not determined; ref 1 (Santiago et al.); cited from earlier work
# [4] = female adult worms, read-out: S. mansoni EC50 Female
# [5] = male adult worms, read-out: S. mansoni EC50 Male
smiles,measurement,setting,value
"CCC/C(C)=N/Nc1ccnc2cc(Cl)ccc12 [GPQF-8Q23, 7-Chloro-4-[(2E)-2-(pentan-2-ylidene)hydrazinyl]quinoline]",melting point,,250 °C (dec.)
same,Activity against 49-day-old S. mansoni worms at 50 µM,S. mansoni adult worms,Inactive
"O=[N+]([O-])c1ccc(/C=N/Nc2ccnc3cc(Cl)ccc23)o1 [GPQF-8Q6, 7-Chloro-4-{(2E)-2-[(5-nitrofuran-2-yl)methylidene]hydrazinyl}quinoline]",Activity against 49-day-old S. mansoni worms at 50 µM,S. mansoni adult worms,Inactive
"COc1cc(/C=N/Nc2ccnc3cc(Cl)ccc23)ccc1O [GPQF-8Q4, 4-{(E)-[2-(7-chloroquinolin-4-yl)hydrazinylidene]methyl}-2-methoxyphenol]",Activity against 49-day-old S. mansoni worms at 50 µM,S. mansoni adult worms,Inactive
"Fc1ccc(/C=N/Nc2ccnc3cc(Cl)ccc23)cc1 [GPQF-8Q12, 7-Chloro-4-[(2E)-2-(4-fluorobenzylidene)hydrazinyl]quinoline]",melting point,,236 to 241 °C
"Oc1ccc(/C=N/Nc2ccnc3cc(Cl)ccc23)c(O)c1 [GPQF-8Q14, 4-{(E)-[2-(7-chloroquinolin-4-yl)hydrazinylidene]methyl}benzene-1,3-diol]",Activity against 49-day-old S. mansoni worms at 50 µM,S. mansoni adult worms,Inactive
"C/C(=N\Nc1ccnc2cc(Cl)ccc12)c1ccccc1 [GPQF-8Q16, 7-Chloro-4-[(2E)-2-(1-phenylethylidene)hydrazinyl]quinoline]",melting point,,302 to 306 °C
same,Activity against 49-day-old S. mansoni worms at 50 µM,S. mansoni adult worms,Inactive
"O=C(C1CCCCC1)N1CC(=O)N2CCc3ccccc3C2C1 (stereo not shown) [PZQ, praziquantel, reference compound]",SI (selectivity index),Vero cells,> 200
same,CC50 at 72 h,[1],> 200 µM
same,EC50,S. mansoni adult worms; [4],1 µM
same,EC50,S. mansoni adult worms; [5],0.7 µM
"Clc1ccc2c(N/N=C/c3cccs3)ccnc2c1 [GPQF-8Q8, 7-Chloro-4-[(2E)-2-(thiophen-2-ylmethylidene)hydrazinyl]quinoline]",Reduction in worm burden,S. mansoni-infected mice; 42 days post-infection,50.8%
same,Reduction in eggs found in feces,S. mansoni-infected mice; Kato-Katz technique,52.8%
same,Reduction in immature eggs found in the intestines,S. mansoni-infected mice; oogram,45.8%
same,SI (selectivity index),Vero cells,> 5.6
same,CC50 at 72 h,[1],> 200 µM
same,Survival percentage of C. elegans,Caenorhabditis elegans; 10 μM,100%
same,Survival percentage of C. elegans,Caenorhabditis elegans; 25 μM,100%
same,Survival percentage of C. elegans,Caenorhabditis elegans; 50 μM,100%
same,Survival percentage of C. elegans,Caenorhabditis elegans; 100 μM,100%
same,Survival percentage of C. elegans,Caenorhabditis elegans; 200 μM,100%
same,Activity against 49-day-old S. mansoni worms at 50 µM,S. mansoni adult worms,Active
same,EC50,S. mansoni adult worms; [4],28.5 µM
same,EC50,S. mansoni adult worms; [5],35.8 µM
"C/C(=N\Nc1ccnc2cc(Cl)ccc12)c1ccc(Cl)cc1 [GPQF-8Q26, 7-Chloro-4-{(2E)-2-[1-(4-chlorophenyl)ethylidene]hydrazinyl}quinoline]",melting point,,290 to 292 °C
same,Activity against 49-day-old S. mansoni worms at 50 µM,S. mansoni adult worms,Inactive
NC(=S)N/N=C/c1ccc[nH]1 [IV],IC50,[2]; unit inferred,6.8 µM
"CC/C(C)=N/Nc1ccnc2cc(Cl)ccc12 [GPQF-8Q22, 4-[(2E)-2-(butan-2-ylidene)hydrazinyl]-7-chloroquinoline]",melting point,,71 to 74 °C
same,Activity against 49-day-old S. mansoni worms at 50 µM,S. mansoni adult worms,Inactive
COc1ccc(-c2cnc(N/N=C/N3C(=O)c4ccccc4C3=O)s2)cc1 [LpQM-45],"IC50 (worm motility, pairing, oviposition study)",[3],32.09 µg/mL
"C/C(=N\Nc1ccnc2cc(Cl)ccc12)C(C)(C)C [GPQF-8Q25, 7-Chloro-4-[(2E)-2-(3,3-dimethylbutan-2-ylidene)hydrazinyl]quinoline]",melting point,,228 to 232 °C
same,Activity against 49-day-old S. mansoni worms at 50 µM,S. mansoni adult worms,Inactive
"Cc1ccc(/C=N/Nc2ccnc3cc(Cl)ccc23)cc1 [GPQF-8Q10, 7-Chloro-4-[(2E)-2-(4-methylbenzylidene)hydrazinyl]quinoline]",SI (selectivity index),Vero cells,> 12.8
same,CC50 at 72 h,[1],> 200 µM
same,Survival percentage of C. elegans,Caenorhabditis elegans; 10 μM,100%
same,Survival percentage of C. elegans,Caenorhabditis elegans; 25 μM,100%
same,Survival percentage of C. elegans,Caenorhabditis elegans; 50 μM,100%
same,Survival percentage of C. elegans,Caenorhabditis elegans; 100 μM,100%
same,Survival percentage of C. elegans,Caenorhabditis elegans; 200 μM,100%
same,Time to worm mortality,S. mansoni adult worms; 25 µM,≤ 24 h
same,Activity against 49-day-old S. mansoni worms at 50 µM,S. mansoni adult worms,Active
same,EC50,S. mansoni adult worms; [4],15.6 µM
same,EC50,S. mansoni adult worms; [5],13.3 µM
"C/C(=N\Nc1ccnc2cc(Cl)ccc12)c1ccc(C)cc1 [GPQF-8Q18, 7-Chloro-4-{(2E)-2-[1-(4-methylphenyl)ethylidene]hydrazinyl}quinoline]",melting point,,310 °C (dec.)
same,Activity against 49-day-old S. mansoni worms at 50 µM,S. mansoni adult worms,Inactive
Cc1ccc(/C=N/NC(N)=S)cc1 [II],IC50,[2],2.5 µM
"C/C(CCc1ccccc1)=N\Nc1ccnc2cc(Cl)ccc12 [GPQF-8Q21, 7-Chloro-4-[(2E)-2-(4-phenylbutan-2-ylidene)hydrazinyl]quinoline]",melting point,,161 to 166 °C
same,Activity against 49-day-old S. mansoni worms at 50 µM,S. mansoni adult worms,Inactive
"CCc1ccc(/C(C)=N/Nc2ccnc3cc(Cl)ccc23)cc1 [GPQF-8Q19, 7-Chloro-4-{(2E)-2-[1-(4-ethylphenyl)ethylidene]hydrazinyl}quinoline]",melting point,,300 to 304 °C
same,Activity against 49-day-old S. mansoni worms at 50 µM,S. mansoni adult worms,Inactive
"C/C(=N\Nc1ccnc2cc(Cl)ccc12)c1ccc(O)cc1 [GPQF-8Q17, 4-{(1E)-1-[2-(7-chloroquinolin-4-yl)hydrazinylidene]ethyl}phenol]",Activity against 49-day-old S. mansoni worms at 50 µM,S. mansoni adult worms,Inactive
"Clc1ccc2c(N/N=C/c3ccc(Cl)c(Cl)c3)ccnc2c1 [GPQF-8Q13, 7-Chloro-4-[(2E)-2-(3,4-dichlorobenzylidene)hydrazinyl]quinoline]",melting point,,320 °C (dec.)
same,Activity against 49-day-old S. mansoni worms at 50 µM,S. mansoni adult worms,Inactive
"C/C(=N\Nc1ccnc2cc(Cl)ccc12)c1ccc(Cl)c(Cl)c1 [GPQF-8Q20, 7-Chloro-4-{(2E)-2-[1-(3,4-dichlorophenyl)ethylidene]hydrazinyl}quinoline]",melting point,,294 to 298 °C
same,Activity against 49-day-old S. mansoni worms at 50 µM,S. mansoni adult worms,Inactive
"Clc1ccc2c(N/N=C/c3ccccc3)ccnc2c1 [GPQF-8Q1, 4-[(2E)-2-benzylidenehydrazinyl]-7-chloroquinoline]",melting point,,220 to 224 °C
same,Activity against 49-day-old S. mansoni worms at 50 µM,S. mansoni adult worms,Inactive
NC(=S)N/N=C/c1ccncc1 [V],IC50,[2]; unit inferred,42.4 µM
"c1ccc([C@H]2CN3CCSC3=N2)cc1 [LVM, levamisole, reference compound]",Survival percentage of C. elegans,Caenorhabditis elegans; 10 μM,0%
"O=[N+]([O-])c1ccc(/C=N/Nc2ccnc3cc(Cl)ccc23)cc1 [GPQF-8Q3, 7-Chloro-4-[(2E)-2-(4-nitrobenzylidene)hydrazinyl]quinoline]",Activity against 49-day-old S. mansoni worms at 50 µM,S. mansoni adult worms,Inactive
